Earlier results on 2 compounds are cited in patent publication US9034914B2, “Pharmaceutical composition comprising rotigotine salts (acid or Na), especially for iontophoresis” (UCB Pharma GmbH, priority 2009, dated 2015).

Structures can show the parent of a compound that is named as a salt. Where two headings read alike, the source gives them in different places. Marks after values point to notes of the source that are not given here.

The conditions of data set [1]: passive delivery, patch size 10 cm^2, estimated to deliver 2 mg in 24 h; cited from earlier work.
For data set [2] the following is noted: 20 cm^2 patch containing 10 mg rotigotine hydrochloride, TTS of WO 94/07468; cited from earlier work.
The conditions of data set [3]: pH 5; cited from earlier work.
The conditions of data set [4]: cited from earlier work; for Solubility: adapted from Nugroho et al.

For the compound `CCCN(CCc1cccs1)[C@H]1CCc2c(O)cccc2C1` [rotigotine, (−)-5,6,7,8-tetrahydro-6-[propyl-[2-(2-thienyl)ethyl]-amino]-1-naphthalenol], in data set [1], the maximum plasma concentration (Cmax) is 215 pg/mL and the “time of maximum plasma concentration” value is reported as 16 h.
For `CCCN(CCc1cccs1)[C@H]1CCc2c(O)cccc2C1` [rotigotine.HCl, rotigotine hydrochloride], the “average drug plasma levels” value in data set [2] is recorded as “around 0.15 ng/mL”. Also, in data set [3], the maximum iontophoretic flux is listed as 80.2±14.4 nmol·cm^−2·h^−1. Also, the transport number in data set [3] is given as 0.4%. For the same compound, the “effect of addition of NaCl on solubility” value in data set [4] (68 mM NaCl, results by Nugroho) is listed as “reduced tremendously”. Further, the Solubility in data set [4] (pH 4, 68 mM NaCl) is 6.75 µmol/mL; in data set [4] (pH 4, no NaCl) it was 24.39^a,b μmol/ml; in data set [4] (pH 5, 68 mM NaCl), 6.35 µmol/mL; in data set [4] (pH 5, no NaCl, hydrochloride), 22.4 µmol/mL; in data set [4] (pH 5, no NaCl, listed as Rotigotine•HCl, hydrochloride), 22.45^a,b μmol/ml; in data set [4] (pH 6, 68 mM NaCl) it was 6.52 µmol/mL. In data set [4] (pH 6, no NaCl), the Solubility was 15.87^b μmol/ml. Also, the maximum solubility in data set [4] (pH 5, in the presence of 0.07 molar NaCl, previous attempts) is 6.3 µmol/mL.

As usually defined, the Solubility is the concentration that dissolves in the medium under given conditions.
